One assay concerns neutrophilic asthma. The assay is described as follows: Neutrophilic asthma model (LPS/OVA). It is filed as in vivo, C57BL/6 mice. Conditions: 10 mg/kg oral daily, 27th to 36th days, compared to solvent control. As for the experimental part: Sensitization was induced in C57BL/6 mice (7 weeks old, female) by intranasally administering 10 μg of LPS (lipopolysaccharide, Sigma Aldrich, Cat No. L2630) and 75 μg of OVA (Ovalbumin, Sigma Aldrich, Cat No. A5503) diluted in phosphate buffered saline (20 μl in total) on the 0th, 1st, 2nd and 7th days of the experiment. From the 14th day of the experiment, 50 μg of OVA diluted in phosphate buffered saline was challenged by intranasal administration for a total of 8 times at an interval of 2 days a week until the 36th day. The intranasal administration was performed after anesthesia using an isoflurane inhalation anesthetic. In the compound 6 administration group according to an embodiment of the present invention, 10 mg/kg of Compound 6 per mouse was completely dissolved in an ethanol-Cremophor EL mixture corresponding to 7.5% (v/v) of the administered dose, and then, was diluted in phosphate buffered saline to prepare the final ethanol:Cremophor EL:phosphate buffered saline (0.375:0.375:9.25, v/v/v), followed by oral administration with 200 μl of the prepared solution daily for a total of 10 times from the 27th to the 36th days of the experiment.

The subject of a further assay is psoriasis. The assay is described as follows: Imiquimod-induced psoriasis model. In kind it is in vivo, BALB/C mice. Conditions: 10 mg/kg oral daily, 0th to 5th days, back skin on 6th day. On the procedure:
Hair on the back of female BALB/C mice (8-10 weeks old) was shaved using a shaver and shaving cream, and 62.5 mg of 5% imiquimod cream was applied daily for 6 days to the shaved skin from the next day. Vaseline cream was applied to control mice (Vehicle). In the compound 6 administration group according to an embodiment of the present invention, 10 mg/kg of the compound per mouse was completely added to an ethanol-Cremophor EL mixture (1:1, v/v) corresponding to 15% (v/v) of the administered dose, and then, was diluted in phosphate buffered saline to prepare the final ethanol:Cremophor EL:phosphate buffered saline (7.5:7.5:85, v/v/v), followed by oral administration with 200 μl of the prepared solution daily for a total of 6 times from the 0th to the 5th days of the experiment. On the 6th day of the experiment, back skin tissues of mice were obtained to perform histology and mRNA experiments.

`O=C(Cc1c[nH]c2ccc(Cl)cc12)Nc1nc2ccc(N3CCOCC3)cc2s1` [Compound 6, 2-(5-chloro-1H-indol-3-yl)-N-(6-morpholinobenzo[d]thiazol-2-yl)acetamide]: the “number of neutrophils in the bronchoalveolar lavage (BAL)” value in the assay on neutrophilic asthma is recorded as “significantly decreased”. In addition, in the assay on psoriasis, the “Foxp3 expression in skin lesions” value is “markedly increased”, the “IL-10 expression in skin lesions” value is recorded as “markedly increased”, the “IL-17a mRNA expression level in skin lesions” value was “significantly reduced” and the “S100a8 mRNA expression level in skin lesions” value is “significantly reduced”. For the same compound, the epithelial thickness result with psoriasis is “significantly reduced”.
